Source: patent US9993494B2, “Compositions and methods for treating fibrotic disease” (eFFECTOR Therapeutics, Inc., priority 2014, dated 2018)

System: normal human lung fibroblasts
Test: Ribosomal profiling: translational efficiency in TGFβ-treated fibroblasts
Format: cell-based
Details: TGFβ-treated fibroblasts
Procedure: Ribosomal profiling allows for measurement of changes in transcription and translation on a genome-wide basis accompanying TGFβ-dependent transformation of fibroblasts to myofibroblasts. Ribosomal profiles of the TGFβ-treated fibroblasts from Example 1 (about 6×10^6 cells/10 cm plate) were prepared and analyzed for changes in translational efficiencies with respect to potential disease-associated cellular changes accompanying this TGFβ-induced transformation.
Briefly, cells were washed with cold PBS supplemented with cycloheximide and lysed with 1× mammalian cell lysis buffer for 10 minutes on ice. Lysates were clarified by centrifugation for 10 minutes at 14,000 rpm and supernatants were collected. Cell lysates were processed to generate ribosomal protected fragments and total mRNA according to the instructions included with the ARTseq Ribosome Profiling Kit (Illumina, San Diego, Calif.). Sequencing of total RNA (RNA) and of ribosome-protected fragments of RNA (RPF) was carried out using RNA-Seq methodology according to the manufacturer's instructions (Illumina). To analyze the ribosomal profiles, RNA-Seq reads were processed with tools from the FASTX-Toolkit (fastq_quality_trimmer, fastx_clipper and fastx_trimmer). Unprocessed and processed reads were evaluated for a variety of quality measures using FastQC, and processed reads were mapped to the human genome using TopHat (see, e.g., Trapnell et al., Bioinformatics 25:1105, 2009). Gene-by-gene assessment of the number of fragments strictly and uniquely mapping to the coding region of each gene was conducted using HTSeq-count, a component of the HTSeq package. […] Genes with low counts in either RPF or RNA were excluded from differential analyses. Pathway and network analyses of differential data were conducted using Ingenuity Pathway Analysis (IPA).

Cc1ccc(=O)n(-c2ccccc2)c1 [pirfenidone, 5-methyl-1-phenylpyridin-2-one]
++ (++ = 1.5 to 2.0): renormalizing the translational profile of P2RX7 (ENSG00000089041) | renormalizing the translational profile of MTUS1 (ENSG00000129422) | renormalizing the translational profile of KRT7 (ENSG00000135480) | renormalizing the translational profile of DIAPH3 (ENSG00000139734) | renormalizing the translational profile of CCDC102B (ENSG00000150636)
+++ (+++ = >2.0): renormalizing the translational profile of FMO2 (ENSG00000094963) | renormalizing the translational profile of PPARG (ENSG00000132170)
− (− = <0.9): renormalizing the translational profile of DNASE1L1 (ENSG00000013563) | renormalizing the translational profile of KITLG (ENSG00000049130) | renormalizing the translational profile of ADAMTS6 (ENSG00000049192) | renormalizing the translational profile of LETMD1 (ENSG00000050426) | renormalizing the translational profile of PLEKHA5 (ENSG00000052126) | renormalizing the translational profile of HIPK2 (ENSG00000064393) | renormalizing the translational profile of RASSF1 (ENSG00000068028) | renormalizing the translational profile of PABPC1 (ENSG00000070756) | renormalizing the translational profile of PLD1 (ENSG00000075651) | renormalizing the translational profile of EDN1 (ENSG00000078401) | renormalizing the translational profile of AURKA (ENSG00000087586) | renormalizing the translational profile of EPB41L1 (ENSG00000088367) | renormalizing the translational profile of RPL6 (ENSG00000089009) | renormalizing the translational profile of KDM2B (ENSG00000089094) | renormalizing the translational profile of RPLP0 (ENSG00000089157) | renormalizing the translational profile of IGBP1 (ENSG00000089289) | renormalizing the translational profile of IRAK3 (ENSG00000090376) | renormalizing the translational profile of PABPC4 (ENSG00000090621) | renormalizing the translational profile of ACOT7 (ENSG00000097021) | renormalizing the translational profile of ATP5D (ENSG00000099624) | renormalizing the translational profile of EIF3L (ENSG00000100129) | renormalizing the translational profile of CEP192 (ENSG00000101639) | renormalizing the translational profile of AMMECR1 (ENSG00000101935) | renormalizing the translational profile of PLP2 (ENSG00000102007) | renormalizing the translational profile of EIF3E (ENSG00000104408) | renormalizing the translational profile of EEF1D (ENSG00000104529) | renormalizing the translational profile of C19orf53 (ENSG00000104979) | renormalizing the translational profile of COMP (ENSG00000105664) | renormalizing the translational profile of CORO2A (ENSG00000106789) | renormalizing the translational profile of GDF10 (ENSG00000107623) | renormalizing the translational profile of RPL19 (ENSG00000108298) | renormalizing the translational profile of RASD1 (ENSG00000108551) | renormalizing the translational profile of NAT9 (ENSG00000109065) | renormalizing the translational profile of CRYAB (ENSG00000109846) | renormalizing the translational profile of GAPDH (ENSG00000111640) | renormalizing the translational profile of C12orf57 (ENSG00000111678) | renormalizing the translational profile of MDFI (ENSG00000112559) | renormalizing the translational profile of HBEGF (ENSG00000113070) | renormalizing the translational profile of RPL24 (ENSG00000114391) | renormalizing the translational profile of EEF1B2 (ENSG00000114942) | renormalizing the translational profile of DPH5 (ENSG00000117543) | renormalizing the translational profile of PPL (ENSG00000118898) | renormalizing the translational profile of PLEKHG1 (ENSG00000120278) | renormalizing the translational profile of LIAS (ENSG00000121897) | renormalizing the translational profile of GPSM2 (ENSG00000121957) | renormalizing the translational profile of INHBA (ENSG00000122641) | renormalizing the translational profile of LAMP5 (ENSG00000125869) | renormalizing the translational profile of NECAB3 (ENSG00000125967) | renormalizing the translational profile of COX7C (ENSG00000127184) | renormalizing the translational profile of LIF (ENSG00000128342) | renormalizing the translational profile of ARHGEF6 (ENSG00000129675) | renormalizing the translational profile of GDF15 (ENSG00000130513) | renormalizing the translational profile of ASS1 (ENSG00000130707) | renormalizing the translational profile of EIF2S3 (ENSG00000130741) | renormalizing the translational profile of RPL27 (ENSG00000131469) | renormalizing the translational profile of MATN3 (ENSG00000132031) | renormalizing the translational profile of KDM6B (ENSG00000132510) | renormalizing the translational profile of RARRES3 (ENSG00000133321) | renormalizing the translational profile of BIVM (ENSG00000134897) | renormalizing the translational profile of HNRNPA1 (ENSG00000135486) | renormalizing the translational profile of IL6 (ENSG00000136244) | renormalizing the translational profile of RPL35 (ENSG00000136942) | renormalizing the translational profile of NOV (ENSG00000136999) | renormalizing the translational profile of IER3 (ENSG00000137331) | renormalizing the translational profile of DDX60 (ENSG00000137628) | renormalizing the translational profile of PAQR5 (ENSG00000137819) | renormalizing the translational profile of AOX1 (ENSG00000138356) | renormalizing the translational profile of PDE5A (ENSG00000138735) | renormalizing the translational profile of GAS2L3 (ENSG00000139354) | renormalizing the translational profile of MYO19 (ENSG00000141140) | renormalizing the translational profile of RPL11 (ENSG00000142676) | renormalizing the translational profile of PLEKHA6 (ENSG00000143850) | renormalizing the translational profile of RPL32 (ENSG00000144713) | renormalizing the translational profile of BTF3 (ENSG00000145741) | renormalizing the translational profile of DENND2A (ENSG00000146966) | renormalizing the translational profile of EIF3H (ENSG00000147677) | renormalizing the translational profile of EIF3M (ENSG00000149100) | renormalizing the translational profile of FAU (ENSG00000149806) | renormalizing the translational profile of FRMD4A (ENSG00000151474) | renormalizing the translational profile of HOMER1 (ENSG00000152413) | renormalizing the translational profile of PLEKHH2 (ENSG00000152527) | renormalizing the translational profile of ANKH (ENSG00000154122) | renormalizing the translational profile of ABCA6 (ENSG00000154262) | renormalizing the translational profile of OBSCN (ENSG00000154358) | renormalizing the translational profile of ADAMTS5 (ENSG00000154736) | renormalizing the translational profile of OXA1L (ENSG00000155463) | renormalizing the translational profile of C9orf85 (ENSG00000155621) | renormalizing the translational profile of NRG1 (ENSG00000157168) | renormalizing the translational profile of ADAMTS4 (ENSG00000158859) | renormalizing the translational profile of RPL8 (ENSG00000161016) | renormalizing the translational profile of RPL29 (ENSG00000162244) | renormalizing the translational profile of CAMK2N1 (ENSG00000162545) | renormalizing the translational profile of IGFBP7 (ENSG00000163453)
+ (+ = 0.9 to 1.5): renormalizing the translational profile of EIF4B (ENSG00000063046) | renormalizing the translational profile of RPL18 (ENSG00000063177) | renormalizing the translational profile of ASPM (ENSG00000066279) | renormalizing the translational profile of RPL31 (ENSG00000071082) | renormalizing the translational profile of LGALS1 (ENSG00000100097) | renormalizing the translational profile of RPL3 (ENSG00000100316) | renormalizing the translational profile of GLTSCR2 (ENSG00000105373) | renormalizing the translational profile of RAB3D (ENSG00000105514) | renormalizing the translational profile of RPL18A (ENSG00000105640) | renormalizing the translational profile of GLCCI1 (ENSG00000106415) | renormalizing the translational profile of RPL28 (ENSG00000108107) | renormalizing the translational profile of RPL34 (ENSG00000109475) | renormalizing the translational profile of IFIH1 (ENSG00000115267) | renormalizing the translational profile of RPL21 (ENSG00000122026) | renormalizing the translational profile of RPL5 (ENSG00000122406) | renormalizing the translational profile of CIT (ENSG00000122966) | renormalizing the translational profile of RPL23 (ENSG00000125691) | renormalizing the translational profile of RPL36 (ENSG00000130255) | renormalizing the translational profile of ATP5G2 (ENSG00000135390) | renormalizing the translational profile of RPLP1 (ENSG00000137818) | renormalizing the translational profile of FGF5 (ENSG00000138675) | renormalizing the translational profile of RPL13A (ENSG00000142541) | renormalizing the translational profile of ACTA1 (ENSG00000143632) | renormalizing the translational profile of RPL37 (ENSG00000145592) | renormalizing the translational profile of HIGD2A (ENSG00000146066) | renormalizing the translational profile of CREB5 (ENSG00000146592) | renormalizing the translational profile of RPL10 (ENSG00000147403) | renormalizing the translational profile of RPL7A (ENSG00000148303) | renormalizing the translational profile of RPL30 (ENSG00000156482) | renormalizing the translational profile of EEF1A1 (ENSG00000156508) | renormalizing the translational profile of RPL26 (ENSG00000161970) | renormalizing the translational profile of RPL22L1 (ENSG00000163584)
